Data: patent US20250042848A1, “DEUTERATED FUNCTIONALIZED DERIVATIVES OF alpha-ALANINE, IN [sequence] FOR THE TREATMENT OF NEUROLOGICAL DISEASES” (UNIWERSYTET JAGIELLONSKI, priority 2021, published 2025)

Legend:
[1] = test system: human liver microsomes (HLMs); test: In vitro metabolic stability, human liver microsomes; type: in vitro ADME; conditions: 120-minute incubation with HLMs
Experimental: (§1) Metabolic stability assessment was performed using mouse (MLMs) and human (HLMs) liver microsomes purchased from Sigma-Aldrich (St. Louis, MO, USA). The detailed methodology is described in the literature (Kamiński et al. J. Med. Chem. 2015, 58, 5274-5286). The reaction mixture was prepared by mixing […] of the tested compound with mouse or human microsomes (1 mg/mL) in 10 mM TRIS-HCl buffer. The reaction mixture was pre-incubated for 5 min at 37° C. After the initial incubation, 50 μL of the NADPH Regeneration System (Promega, Madison, WI, USA) was added to initiate the reaction. The reaction mixture was then incubated for 120 min at 37° C. 200 μL of cold extra pure methanol was added to complete the reaction. The mixture was then centrifuged at 14,000 g for 15 min and the supernatants were analyzed using a Waters ACQUITY™ TQD LC/MS system with a TQ detector (Waters, Milford, USA). Each experiment was performed in triplicate.

[2] = test system: motor coordination of mice; test: Rotarod test (motor coordination, acute neurotoxicity); type: in vivo; conditions: in mg/kg
Experimental: Initial screening was performed on groups of 4 mice. The mean effective dose (ED50) in a given test and the neurotoxic dose in the rotarod test (TD50) were estimated on the basis of the results obtained on 3-4 groups of animals consisting of 6 animals.
The effect of the tested compounds on motor coordination was assessed in the rotarod test (May Commat, RR 0711 RotaRod, Turkey). The day before the actual experiment, the mice were trained on a rod rotating at 10 revolutions per minute (rpm) for 3 minutes. The experiment was performed 30 minutes and 2 hours after administration of the compounds. The motor coordination of the animals was tested at the speed of the rotating rod: 10 rpm for 60 seconds. The measure of neurotoxicity was the inability to stay on the rod for a given time (Łuszczki, J.J. et al. Eur. Neuropsychopharmacol. 2005, 6, 609-616).
The ED50 (effective dose) and TD50 (toxic dose) values along with the corresponding 95% confidence limits were calculated based on the Litchfield and Wilcoxon method (Litchfield, J.T.; Wilcoxon, F. J. Pharmacol. Exp. Ther. 1949, 96, 99-113). To perform a statistical evaluation of the results in the scPTZ test, one-way ANOVA variance analysis followed by Dunnett's post hoc test were used. The values were considered statistically significant if p<0.05.

[3] = test system: mouse liver microsomes (MLMs); test: In vitro metabolic stability, mouse liver microsomes; type: in vitro ADME; conditions: 120-minute incubation with MLMs, NADPH
Experimental: as §1

[2H]C1([2H])C(=O)N([C@H](C)C(=O)NCc2ccccc2)C(=O)C1([2H])[2H] [d4-(R)-1, (R)-N-benzyl-2-(2,5-dioxopyrrolidin-1-yl-3,3,4,4-d4) propanamide]
metabolic stability [1]: high metabolic stability
TD50 Rotarod ([2]; 0.5 h after i.p. administration): 176.7
TD50 Rotarod ([2]; 2.0 h after i.p. administration): >300
metabolic stability (metabolites in UPLC chromatograms) [3]: no metabolites appeared
